Assay results from PubChem BioAssay (NCI).
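A five-concentration, 48-hour dose response in 96-well plates underlies each endpoint, interpolated linearly between surrounding concentrations. TGI: total growth inhibition.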

How the values were obtained:
Assay in all cases: inhibition of tumour cell growth, NCI panel, 48 h
CAKI-1 renal = test system: CAKI-1 renal
DMS 273 small cell lung = test system: DMS 273 small cell lung
NCI-H522 lung = test system: NCI-H522 lung
OVCAR-4 ovarian = test system: OVCAR-4 ovarian
786-0 renal = test system: 786-0 renal
NCI-H226 lung = test system: NCI-H226 lung
HCT-116 colon = test system: HCT-116 colon
K-562 leukemia = test system: K-562 leukemia
M14 melanoma = test system: M14 melanoma
SN12C renal = test system: SN12C renal
LOX IMVI melanoma = test system: LOX IMVI melanoma
OVCAR-5 ovarian = test system: OVCAR-5 ovarian
SNB-78 CNS = test system: SNB-78 CNS
U251 CNS = test system: U251 CNS
HCC-2998 colon = test system: HCC-2998 colon
UO-31 renal = test system: UO-31 renal
KM20L2 colon = test system: KM20L2 colon
MALME-3M melanoma = test system: MALME-3M melanoma
EKVX NSCLC = test system: EKVX NSCLC
SK-MEL-5 melanoma = test system: SK-MEL-5 melanoma
SK-MEL-28 melanoma = test system: SK-MEL-28 melanoma
UACC-62 melanoma = test system: UACC-62 melanoma
IGROV1 ovarian = test system: IGROV1 ovarian
UACC-257 melanoma = test system: UACC-257 melanoma
HOP-18 NSCLC = test system: HOP-18 NSCLC
RXF 393 renal = test system: RXF 393 renal
SF-539 CNS = test system: SF-539 CNS
SW-620 colon = test system: SW-620 colon
SNB-19 CNS = test system: SNB-19 CNS
A498 renal = test system: A498 renal
M19-MEL melanoma = test system: M19-MEL melanoma
CCRF-CEM leukemia = test system: CCRF-CEM leukemia
NCI-H460 lung = test system: NCI-H460 lung
SF-295 CNS = test system: SF-295 CNS
TK-10 renal = test system: TK-10 renal
NCI-H23 lung = test system: NCI-H23 lung
HL-60(TB) leukemia = test system: HL-60(TB) leukemia
OVCAR-8 ovarian = test system: OVCAR-8 ovarian
ACHN renal = test system: ACHN renal
SF-268 CNS = test system: SF-268 CNS
HCT-15 colon = test system: HCT-15 colon
MOLT-4 leukemia = test system: MOLT-4 leukemia
HT29 colon = test system: HT29 colon
LXFL 529 NSCLC = test system: LXFL 529 NSCLC
SK-MEL-2 melanoma = test system: SK-MEL-2 melanoma
HOP-92 NSCLC = test system: HOP-92 NSCLC
DLD-1 colon = test system: DLD-1 colon
A549 NSCLC = test system: A549 NSCLC
RPMI-8226 leukemia = test system: RPMI-8226 leukemia
HOP-62 NSCLC = test system: HOP-62 NSCLC
XF 498 CNS = test system: XF 498 CNS
SNB-75 CNS = test system: SNB-75 CNS
DMS 114 small cell lung = test system: DMS 114 small cell lung
SK-OV-3 ovarian = test system: SK-OV-3 ovarian
KM12 colon = test system: KM12 colon
OVCAR-3 ovarian = test system: OVCAR-3 ovarian
COLO 205 colon = test system: COLO 205 colon
SR leukemia = test system: SR leukemia

With `CN(C)c1nc(=Nc2ccc3c(c2)OCO3)ss1` the TGI (CAKI-1 renal) was > 100 µM, the TGI (DMS 273 small cell lung) was > 100 µM and the TGI (NCI-H522 lung) was > 100 µM. The TGI (OVCAR-4 ovarian) was > 100 µM, the TGI (786-0 renal) was > 100 µM and the TGI (NCI-H226 lung) was > 100 µM. The TGI (HCT-116 colon) was > 100 µM, the TGI (K-562 leukemia) was > 100 µM and the TGI (M14 melanoma) was > 100 µM. The TGI (SN12C renal) was > 100 µM, the TGI (LOX IMVI melanoma) was > 100 µM and the TGI (OVCAR-5 ovarian) was > 100 µM. For the same compound, the TGI (SNB-78 CNS) was > 100 µM, the TGI (U251 CNS) was > 100 µM and the TGI (HCC-2998 colon) was > 100 µM. For the same compound, the TGI (UO-31 renal) was 83.3 µM, the TGI (KM20L2 colon) was > 100 µM and the TGI (MALME-3M melanoma) was > 100 µM. The TGI (EKVX NSCLC) was > 100 µM, the TGI (SK-MEL-5 melanoma) was > 100 µM and the TGI (SK-MEL-28 melanoma) was > 100 µM. The TGI (UACC-62 melanoma) was > 100 µM, the TGI (IGROV1 ovarian) was > 100 µM and the TGI (UACC-257 melanoma) was > 100 µM. The TGI (HOP-18 NSCLC) was > 100 µM, the TGI (RXF 393 renal) was > 100 µM and the TGI (SF-539 CNS) was > 100 µM. The TGI (SW-620 colon) was > 100 µM, the TGI (SNB-19 CNS) was > 100 µM and the TGI (A498 renal) was > 100 µM. For the same compound, the TGI (M19-MEL melanoma) was > 100 µM, the TGI (CCRF-CEM leukemia) was > 100 µM and the TGI (NCI-H460 lung) was > 100 µM. The TGI (SF-295 CNS) was > 100 µM, the TGI (TK-10 renal) was > 100 µM and the TGI (NCI-H23 lung) was > 100 µM. For the same compound, the TGI (HL-60(TB) leukemia) was 60 µM, the TGI (OVCAR-8 ovarian) was > 100 µM and the TGI (ACHN renal) was > 100 µM. The TGI (SF-268 CNS) was > 100 µM, the TGI (HCT-15 colon) was > 100 µM and the TGI (MOLT-4 leukemia) was 78.4 µM. The TGI (HT29 colon) was > 100 µM, the TGI (LXFL 529 NSCLC) was > 100 µM and the TGI (SK-MEL-2 melanoma) was > 100 µM. For the same compound, the TGI (HOP-92 NSCLC) was > 100 µM, the TGI (DLD-1 colon) was > 100 µM and the TGI (A549 NSCLC) was > 100 µM. For the same compound, the TGI (RPMI-8226 leukemia) was 57.8 µM, the TGI (HOP-62 NSCLC) was > 100 µM and the TGI (XF 498 CNS) was > 100 µM. For the same compound, the TGI (SNB-75 CNS) was 66 µM, the TGI (DMS 114 small cell lung) was > 100 µM and the TGI (SK-OV-3 ovarian) was > 100 µM. The TGI (KM12 colon) was > 100 µM.
In the case of `Cc1cc(NS(=O)(=O)c2ccc(Nc3c4ccccc4nc4c(C(=O)Nc5ccc(S(N)(=O)=O)cc5)cccc34)cc2)no1`, the TGI (CAKI-1 renal) is reported as > 100 µM, the TGI (DMS 273 small cell lung) is reported as > 100 µM and the TGI (NCI-H522 lung) is reported as 54.1 µM. For the same compound, the TGI (OVCAR-4 ovarian) was 51.1 µM, the TGI (786-0 renal) was > 100 µM and the TGI (HCT-116 colon) was > 100 µM. For the same compound, the TGI (K-562 leukemia) was > 100 µM, the TGI (M14 melanoma) was > 100 µM and the TGI (SN12C renal) was > 100 µM. For the same compound, the TGI (OVCAR-3 ovarian) was 31.7 µM, the TGI (LOX IMVI melanoma) was > 100 µM and the TGI (OVCAR-5 ovarian) was > 100 µM. For the same compound, the TGI (SNB-78 CNS) was 60 µM, the TGI (U251 CNS) was 57.4 µM and the TGI (UO-31 renal) was > 100 µM. The TGI (KM20L2 colon) was > 100 µM, the TGI (MALME-3M melanoma) was 53.1 µM and the TGI (EKVX NSCLC) was > 100 µM. The TGI (SK-MEL-5 melanoma) was > 100 µM, the TGI (SK-MEL-28 melanoma) was 83.9 µM and the TGI (UACC-62 melanoma) was 55.8 µM. The TGI (IGROV1 ovarian) was > 100 µM, the TGI (UACC-257 melanoma) was > 100 µM and the TGI (HOP-18 NSCLC) was > 100 µM. The TGI (RXF 393 renal) was > 100 µM, the TGI (SF-539 CNS) was 61.2 µM and the TGI (SW-620 colon) was > 100 µM. The TGI (SNB-19 CNS) was 84.9 µM, the TGI (A498 renal) was > 100 µM and the TGI (M19-MEL melanoma) was 64.8 µM. For the same compound, the TGI (CCRF-CEM leukemia) was 79.9 µM, the TGI (NCI-H460 lung) was > 100 µM and the TGI (SF-295 CNS) was > 100 µM. For the same compound, the TGI (TK-10 renal) was > 100 µM, the TGI (NCI-H23 lung) was > 100 µM and the TGI (OVCAR-8 ovarian) was > 100 µM. The TGI (ACHN renal) was > 100 µM, the TGI (SF-268 CNS) was > 100 µM and the TGI (HCT-15 colon) was > 100 µM. The TGI (MOLT-4 leukemia) was 78.9 µM, the TGI (HT29 colon) was > 100 µM and the TGI (LXFL 529 NSCLC) was 44.8 µM. For the same compound, the TGI (SK-MEL-2 melanoma) was 69.3 µM, the TGI (HOP-92 NSCLC) was 81.6 µM and the TGI (DLD-1 colon) was > 100 µM. The TGI (A549 NSCLC) was > 100 µM, the TGI (RPMI-8226 leukemia) was > 100 µM and the TGI (HOP-62 NSCLC) was > 100 µM. The TGI (XF 498 CNS) was 57.9 µM, the TGI (SNB-75 CNS) was > 100 µM and the TGI (DMS 114 small cell lung) was 77.3 µM. The TGI (SK-OV-3 ovarian) was > 100 µM, the TGI (KM12 colon) was 50.6 µM and the TGI (COLO 205 colon) was > 100 µM.
With `CCN1C(=O)N(C)C(O)c2c1nc1ccccn1c2=O` (centres undefined) the TGI (DMS 273 small cell lung) was 42.4 µM, the TGI (NCI-H522 lung) was 65.6 µM and the TGI (OVCAR-4 ovarian) was > 100 µM. The TGI (786-0 renal) was 98.4 µM, the TGI (NCI-H226 lung) was > 100 µM and the TGI (HCT-116 colon) was 84.1 µM. The TGI (K-562 leukemia) was > 100 µM, the TGI (M14 melanoma) was > 100 µM and the TGI (SN12C renal) was 64 µM. The TGI (OVCAR-3 ovarian) was 63.9 µM, the TGI (LOX IMVI melanoma) was 33.2 µM and the TGI (SNB-78 CNS) was 82.5 µM. For the same compound, the TGI (U251 CNS) was > 100 µM, the TGI (HCC-2998 colon) was 43.6 µM and the TGI (UO-31 renal) was > 100 µM. The TGI (KM20L2 colon) was 59.8 µM, the TGI (MALME-3M melanoma) was > 100 µM and the TGI (EKVX NSCLC) was 53 µM. The TGI (SK-MEL-28 melanoma) was 77.6 µM, the TGI (UACC-62 melanoma) was 1.98 µM and the TGI (IGROV1 ovarian) was > 100 µM. The TGI (UACC-257 melanoma) was > 100 µM, the TGI (HOP-18 NSCLC) was 65.3 µM and the TGI (RXF 393 renal) was 59 µM. For the same compound, the TGI (SF-539 CNS) was 54.3 µM, the TGI (SW-620 colon) was > 100 µM and the TGI (SNB-19 CNS) was > 100 µM. It also gave a TGI (A498 renal) of 66.2 µM, a TGI (M19-MEL melanoma) of 83.6 µM and a TGI (CCRF-CEM leukemia) of 95.5 µM. The TGI (NCI-H460 lung) was 42.8 µM, the TGI (SF-295 CNS) was > 100 µM and the TGI (TK-10 renal) was 60.4 µM. It also gave a TGI (NCI-H23 lung) of 63.6 µM, a TGI (HL-60(TB) leukemia) of 90.7 µM and a TGI (OVCAR-8 ovarian) of 46.4 µM. For the same compound, the TGI (ACHN renal) was > 100 µM, the TGI (SF-268 CNS) was 68.8 µM and the TGI (HCT-15 colon) was > 100 µM. For the same compound, the TGI (MOLT-4 leukemia) was > 100 µM, the TGI (HT29 colon) was 70.7 µM and the TGI (LXFL 529 NSCLC) was > 100 µM. The TGI (SK-MEL-2 melanoma) was 62.8 µM, the TGI (HOP-92 NSCLC) was 62.5 µM and the TGI (DLD-1 colon) was > 100 µM. The TGI (A549 NSCLC) was 98.6 µM, the TGI (RPMI-8226 leukemia) was 78.6 µM and the TGI (HOP-62 NSCLC) was 98.6 µM. For the same compound, the TGI (SR leukemia) was > 100 µM, the TGI (XF 498 CNS) was 83.4 µM and the TGI (SNB-75 CNS) was 56.7 µM. The TGI (DMS 114 small cell lung) was > 100 µM, the TGI (SK-OV-3 ovarian) was 59.4 µM and the TGI (KM12 colon) was > 100 µM. It also gave a TGI (COLO 205 colon) of 37.6 µM.
